Earlier results as cited in patent US20190134140A1, “ORALLY ADMINISTERED COMPOSITION FOR TREATING CYSTIC FIBROSIS, COPD, ASTHMA AND OTHER INFLAMMATORY CONDITIONS” (priority 2017, published 2019).
Read-outs that look alike come from different tables or passages of the source.

Tests used:
dF508 = dF508 (Homo sapiens, UniProt P13569, DEL508-508)
Sequence of dF508 (P13569 with tags, fused parts or gaps DEL508-508): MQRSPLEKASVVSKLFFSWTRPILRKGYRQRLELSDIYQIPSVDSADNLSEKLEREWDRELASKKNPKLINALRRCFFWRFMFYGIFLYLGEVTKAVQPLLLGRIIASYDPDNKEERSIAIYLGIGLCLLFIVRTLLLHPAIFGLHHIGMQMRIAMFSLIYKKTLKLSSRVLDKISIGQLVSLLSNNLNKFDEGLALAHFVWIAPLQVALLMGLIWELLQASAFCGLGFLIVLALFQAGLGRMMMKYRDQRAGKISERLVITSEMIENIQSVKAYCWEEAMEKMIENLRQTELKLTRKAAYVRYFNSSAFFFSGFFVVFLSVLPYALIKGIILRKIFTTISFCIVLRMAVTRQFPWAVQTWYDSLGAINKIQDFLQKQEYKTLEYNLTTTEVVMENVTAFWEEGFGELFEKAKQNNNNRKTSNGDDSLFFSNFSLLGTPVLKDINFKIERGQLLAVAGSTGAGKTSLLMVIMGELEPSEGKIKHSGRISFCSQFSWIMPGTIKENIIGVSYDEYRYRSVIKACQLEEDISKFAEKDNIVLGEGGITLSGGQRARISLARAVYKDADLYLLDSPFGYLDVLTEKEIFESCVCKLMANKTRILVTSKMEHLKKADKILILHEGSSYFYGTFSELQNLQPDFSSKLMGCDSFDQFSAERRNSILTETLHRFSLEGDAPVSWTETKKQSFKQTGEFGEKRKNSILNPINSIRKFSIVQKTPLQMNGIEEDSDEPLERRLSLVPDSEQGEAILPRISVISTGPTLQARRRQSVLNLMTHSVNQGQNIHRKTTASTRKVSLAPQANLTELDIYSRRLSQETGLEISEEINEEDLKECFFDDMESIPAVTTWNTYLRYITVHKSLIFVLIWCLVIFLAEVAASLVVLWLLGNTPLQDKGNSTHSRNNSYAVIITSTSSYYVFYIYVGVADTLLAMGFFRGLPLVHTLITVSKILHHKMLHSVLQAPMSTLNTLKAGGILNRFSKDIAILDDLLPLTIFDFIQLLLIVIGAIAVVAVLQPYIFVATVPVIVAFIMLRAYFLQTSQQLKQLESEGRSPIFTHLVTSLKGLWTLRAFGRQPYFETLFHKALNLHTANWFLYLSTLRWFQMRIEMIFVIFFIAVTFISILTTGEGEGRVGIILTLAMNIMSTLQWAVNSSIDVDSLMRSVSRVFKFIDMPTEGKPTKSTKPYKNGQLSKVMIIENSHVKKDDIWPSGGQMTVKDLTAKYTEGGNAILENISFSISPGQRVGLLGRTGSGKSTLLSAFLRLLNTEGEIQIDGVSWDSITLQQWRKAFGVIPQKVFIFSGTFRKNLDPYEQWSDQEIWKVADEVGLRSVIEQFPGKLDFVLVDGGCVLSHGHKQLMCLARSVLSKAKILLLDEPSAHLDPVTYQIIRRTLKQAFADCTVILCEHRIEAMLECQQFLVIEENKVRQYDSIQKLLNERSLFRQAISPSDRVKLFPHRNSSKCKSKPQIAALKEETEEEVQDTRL

activation of dF508 (dF508)	enhancement in permeability (combined with curcumin) [%]	enhancement in permeability (combined with piperine) [%]	enhancement in permeability (combined with quercetin) [%]	SMILES	ciliary beat frequency (ciliary beat frequency)
activate dF508				O=c1c(O)c(-c2ccc(O)c(O)c2)oc2cc(O)cc(O)c12 [Quercetin]	increase ciliary beat frequency
	300	350	310	Oc1ccc(C=Cc2cc(O)cc(O)c2)cc1 [Resveratrol]	
